Measured values taken from ChEMBL document CHEMBL3044851, “Immunomodulatory active steroidal saponins from Asparagus racemosus” (Med Chem Res, 2013).
Active and inactive are the calls of the source. No cut-off for these calls is given here.

Tests used:
[1] = Immunomodulatory activity in Homo sapiens (human) PMN cells assessed as induction of phagocytosis using Candida albicans as an infectious organism at 0.0075 ug/ml after 1 hr by Giemsa staining based microscopic analysis (reference value: 27.33 +/-2.52%); format: functional
[2] = Cytotoxicity against Homo sapiens (human) PMN cells assessed as cell viability at 0.0075 ug/ml by trypan blue dye exclusion test (reference value: 83.94 +/-5.05%); format: cell-based; conditions: read-out: Activity
[3] = Cytotoxicity against Homo sapiens (human) PMN cells assessed as cell viability at 0.005 ug/ml by trypan blue dye exclusion test (reference value: 83.94 +/-5.05%); format: cell-based; conditions: read-out: Activity
[4] = Immunomodulatory activity in Homo sapiens (human) PMN cells assessed as induction of phagocytosis using Candida albicans as an infectious organism at 0.005 ug/ml after 1 hr by Giemsa staining based microscopic analysis (reference value: 27.33 +/-2.52%); format: functional
PMN [5] = experiment: Immunomodulatory activity in Homo sapiens (human) PMN cells assessed as increase in superoxide species generation at 0.001 to 0.0075 ug/ml after 2 hr by NBT assay; format: functional, cell-based
PMN [6] = experiment: Immunomodulatory activity in Homo sapiens (human) PMN cells assessed as increase in reactive oxygen species formation at 0.001 ug/ml at 40 min after luminal addition by chemiluminescence assay; format: functional, cell-based
PMN [7] = experiment: Immunomodulatory activity in Homo sapiens (human) PMN cells assessed as increase in NO release at 0.001 to 0.0075 ug/ml after 1 hr by ELISA plate reader analysis; format: functional, cell-based
[8] = Cytotoxicity against Homo sapiens (human) PMN cells assessed as cell viability at 0.001 ug/ml by trypan blue dye exclusion test (reference value: 83.94 +/-5.05%); format: cell-based; conditions: read-out: Activity
[9] = Immunomodulatory activity in Homo sapiens (human) PMN cells assessed as induction of phagocytosis using Candida albicans as an infectious organism at 1 uM after 1 hr by Giemsa staining based microscopic analysis (reference value: 27.33 +/-2.52%); format: functional
PMN [10] = experiment: Immunomodulatory activity in Homo sapiens (human) PMN cells assessed as increase in reactive oxygen species formation at 0.001 ug/ml at 0 min after luminal addition by chemiluminescence assay; format: functional, cell-based
[11] = Immunomodulatory activity in Homo sapiens (human) PMN cells assessed as induction of phagocytosis using Candida albicans as an infectious organism at 0.001 ug/ml after 1 hr by Giemsa staining based microscopic analysis (reference value: 27.33 +/-2.52%); format: functional
PMN [12] = experiment: Immunomodulatory activity in Homo sapiens (human) PMN cells assessed as increase in phagocytic index using Candida albicans as an infectious organism at 0.005 ug/ml after 1 hr by Giemsa staining based microscopic analysis; format: functional, cell-based
[13] = Cytotoxicity against Homo sapiens (human) PMN cells assessed as cell viability at 0.1 ug/ml by trypan blue dye exclusion test (reference value: 83.94 +/-5.05%); format: cell-based; conditions: read-out: Activity
[14] = Cytotoxicity against Homo sapiens (human) PMN cells assessed as cell viability at 0.5 ug/ml by trypan blue dye exclusion test (reference value: 83.94 +/-5.05%); format: cell-based; conditions: read-out: Activity
PMN [15] = experiment: Immunomodulatory activity in Homo sapiens (human) PMN cells assessed as increase in phagocytic index using Candida albicans as an infectious organism after 1 hr by Giemsa staining based microscopic analysis; format: functional, cell-based
PMN [16] = experiment: Immunomodulatory activity in Homo sapiens (human) PMN cells assessed as increase in reactive oxygen species formation at 0 min after luminal addition by chemiluminescence assay; format: functional, cell-based
[17] = Cytotoxicity against Homo sapiens (human) PMN cells assessed as cell viability at 0.01 ug/ml by trypan blue dye exclusion test (reference value: 83.94 +/-5.05%); format: cell-based; conditions: read-out: Activity
[18] = Cytotoxicity against Homo sapiens (human) PMN cells assessed as cell viability at 1 ug/ml by trypan blue dye exclusion test (reference value: 83.94 +/-5.05%); format: cell-based; conditions: read-out: Activity
PMN [19] = experiment: Immunomodulatory activity in Homo sapiens (human) PMN cells assessed as increase in reactive oxygen species formation at 0.001 to 0.0075 ug/ml at 40 min after luminal addition by chemiluminescence assay; format: functional, cell-based
PMN [20] = experiment: Immunomodulatory activity in Homo sapiens (human) PMN cells assessed as increase in superoxide species generation at 1 uM after 2 hr by NBT assay; format: functional, cell-based
PMN [21] = experiment: Immunomodulatory activity in Homo sapiens (human) PMN cells assessed as increase in reactive oxygen species formation at 1 uM at 0 min after luminal addition by chemiluminescence assay; format: functional, cell-based
PMN [22] = experiment: Immunomodulatory activity in Homo sapiens (human) PMN cells assessed as increase in reactive oxygen species formation at 1 uM at 40 min after luminal addition by chemiluminescence assay; format: functional, cell-based
PMN [23] = experiment: Immunomodulatory activity in Homo sapiens (human) PMN cells assessed as increase in NO release at 1 uM after 1 hr by ELISA plate reader analysis; format: functional, cell-based

| SMILES | Activity [1] [%] | viability at 0.0075 ug/ml [2] [%] | viability at 0.005 ug/ml [3] [%] | Activity [4] [%] | Activity (PMN [5]) | Activity (PMN [7]) | viability at 0.001 ug/ml [8] [%] | Activity [9] [%] | Activity [11] [%] | also measured |
| --- | --- | --- | --- | --- | --- | --- | --- | --- | --- | --- |
| C[C@H]1CC[C@@]2(OC1)O[C@H]1C[C@H]3[C@@H]4CC[C@@H]5C[C@@H](O[C@@H]6O[C@H](CO[C@@H]7O[C@@H](C)[C@H](O)[C@@H](O)[C@H]7O)[C@@H](O[C@@H]7OC[C@@H](O)[C@H](O)[C@H]7O)[C@H](O)[C@H]6O[C@@H]6O[C@H](CO)[C@@H](O)[C@H](O)[C@H]6O)CC[C@]5(C)[C@H]4CC[C@]3(C)[C@H]1[C@@H]2C [SHATAVAROSIDE B] | 26.33 | 91 | 92.8 | 28.17 | Active | Active | 94.2 | 35 | 36.83 | Activity (PMN [6]): Active; Activity (PMN [10]): Active; Activity (PMN [12]): Active |
| C[C@H]1CC[C@@]2(OC1)O[C@H]1C[C@H]3[C@@H]4CC[C@@H]5C[C@@H](O[C@@H]6O[C@H](CO[C@@H]7O[C@@H](C)[C@H](O)[C@@H](O)[C@H]7O)[C@@H](O)[C@H](O)[C@H]6O[C@@H]6OC[C@H](O)[C@H](O)[C@H]6O)CC[C@]5(C)[C@H]4CC[C@]3(C)[C@H]1[C@@H]2C [SHATAVAROSIDE A] | 23.5 | 100 | 100 | 29.33 | Active | Active | 100 | 35 | 32 | viability at 0.1 ug/ml [13]: 71.7%; viability at 0.5 ug/ml [14]: 71.2%; Activity (PMN [15]): Dose-dependent effect; Activity (PMN [16]): Dose-dependent effect; viability at 0.01 ug/ml [17]: 72.3%; viability at 1 ug/ml [18]: 76.2%; Activity (PMN [19]): Active |
| CCCCCCCCCCCCCC(=O)O[C@@H]1[C@@H](C)[C@@]2(O)[C@@H](C=C(CO)C[C@]3(O)C(=O)C(C)=C[C@@H]23)[C@@H]2C(C)(C)[C@]12OC(C)=O | – | – | – | – | – | – | – | – | – | Activity (PMN [20]): Active; Activity (PMN [21]): Active; Activity (PMN [22]): Active; Activity (PMN [23]): Active |
